# According to patent US12054447B2, “PCNA inhibitors” (City of Hope, priority 2015, dated 2024):
# Test system: MOLT-4
# Assay: NCI-60 panel test
# Type: cell-based
# Details: Homo sapiens; MOLT-4, NCI-60 5-dose study
# Protocol: (§1) FIG. 7. NCI-60 panel test. The effect of AOH1160 on growth of the NCI-60 panel, which consists of 60 cancer cell lines representing 9 major cancer types, was tested in a 5-dose study. Shown are the Log IC50 values determined for each cell line. […] This study was performed by the National Institute of Cancer.
# (§2) As observed in FIG. 7, the effect of AOH1160 on growth of the NCI-60 panel, which consists of 60 cancer cell lines representing 9 major cancer types, was tested in a 5-dose study. Shown are the Log IC50 values determined for each cell line.
row,SMILES,GI50
1,O=C(CNC(=O)c1cccc2ccccc12)Nc1ccccc1Oc1cccc(O)c1 [PCNA2],4.9 µM

# Test system: SF-268
# Assay: NCI-60 panel test
# Type: cell-based
# Details: Homo sapiens
# Protocol: as §1, §2
row,SMILES,GI50
1,O=C(CNC(=O)c1cccc2ccccc12)Nc1ccccc1Oc1cccc(O)c1 [PCNA2],20.9 µM

# Test system: NCI/ADR-RES
# Assay: NCI-60 panel test
# Type: cell-based
# Details: Homo sapiens, NCI-60 5-dose study
# Protocol: as §1, §2
row,SMILES,GI50
1,O=C(CNC(=O)c1cccc2ccccc12)Nc1ccccc1Oc1cccc(O)c1 [PCNA2],7.94 µM

# Test system: HCT-116
# Assay: NCI-60 panel test
# Type: cell-based
# Details: Homo sapiens; HCT-116, NCI-60 5-dose study
# Protocol: as §1, §2
row,SMILES,GI50
1,O=C(CNC(=O)c1cccc2ccccc12)Nc1ccccc1Oc1cccc(O)c1 [PCNA2],1.38 µM

# Test system: OVCAR-5
# Assay: NCI-60 panel test
# Type: cell-based
# Details: Homo sapiens; OVCAR-5, NCI-60 5-dose study
# Protocol: as §1, §2
row,SMILES,GI50
1,O=C(CNC(=O)c1cccc2ccccc12)Nc1ccccc1Oc1cccc(O)c1 [PCNA2],25.1 µM

# Test system: CCRF-CEM
# Assay: NCI-60 panel test
# Type: cell-based
# Details: Homo sapiens, NCI-60 5-dose study
# Protocol: as §1, §2
row,SMILES,GI50
1,O=C(CNC(=O)c1cccc2ccccc12)Nc1ccccc1Oc1cccc(O)c1 [PCNA2],4.17 µM

# Test system: SN12C
# Assay: NCI-60 panel test
# Type: cell-based
# Details: Homo sapiens, NCI-60 5-dose study
# Protocol: as §1, §2
row,SMILES,GI50
1,O=C(CNC(=O)c1cccc2ccccc12)Nc1ccccc1Oc1cccc(O)c1 [PCNA2],25.1 µM

# Test system: NCI-H522
# Assay: NCI-60 panel test
# Type: cell-based
# Details: Homo sapiens; NCI-H522, NCI-60 5-dose study
# Protocol: as §1, §2
row,SMILES,GI50
1,O=C(CNC(=O)c1cccc2ccccc12)Nc1ccccc1Oc1cccc(O)c1 [PCNA2],1.62 µM

# Test system: M14
# Assay: NCI-60 panel test
# Type: cell-based
# Details: Homo sapiens; M14, NCI-60 5-dose study
# Protocol: as §1, §2
row,SMILES,GI50
1,O=C(CNC(=O)c1cccc2ccccc12)Nc1ccccc1Oc1cccc(O)c1 [PCNA2],1.55 µM

# Test system: IGROV1
# Assay: NCI-60 panel test
# Type: cell-based
# Details: Homo sapiens, IGROV-1; IGROV1, NCI-60 5-dose study
# Protocol: as §1, §2
row,SMILES,GI50
1,O=C(CNC(=O)c1cccc2ccccc12)Nc1ccccc1Oc1cccc(O)c1 [PCNA2],10 µM

# Test system: MALME-3M
# Assay: NCI-60 panel test
# Type: cell-based
# Details: Homo sapiens, NCI-60 5-dose study
# Protocol: as §1, §2
row,SMILES,GI50
1,O=C(CNC(=O)c1cccc2ccccc12)Nc1ccccc1Oc1cccc(O)c1 [PCNA2],5.89 µM

# Test system: LOX IMVI
# Assay: NCI-60 panel test
# Type: cell-based
# Details: Homo sapiens, NCI-60 5-dose study
# Protocol: as §1, §2
row,SMILES,GI50
1,O=C(CNC(=O)c1cccc2ccccc12)Nc1ccccc1Oc1cccc(O)c1 [PCNA2],15.1 µM

# Test system: MDA-MB-468
# Assay: NCI-60 panel test
# Type: cell-based
# Details: Homo sapiens; MDA-MB-468, NCI-60 5-dose study
# Protocol: as §1, §2
row,SMILES,GI50
1,O=C(CNC(=O)c1cccc2ccccc12)Nc1ccccc1Oc1cccc(O)c1 [PCNA2],3.55 µM

# Test system: HOP-92
# Assay: NCI-60 panel test
# Type: cell-based
# Details: Homo sapiens; HOP-92, NCI-60 5-dose study
# Protocol: as §1, §2
row,SMILES,GI50
1,O=C(CNC(=O)c1cccc2ccccc12)Nc1ccccc1Oc1cccc(O)c1 [PCNA2],25.1 µM

# Test system: NCI-H226
# Assay: NCI-60 panel test
# Type: cell-based
# Details: Homo sapiens; NCI-H226, NCI-60 5-dose study
# Protocol: as §1, §2
row,SMILES,GI50
1,O=C(CNC(=O)c1cccc2ccccc12)Nc1ccccc1Oc1cccc(O)c1 [PCNA2],25.1 µM

# Test system: HCC-2998
# Assay: NCI-60 panel test
# Type: cell-based
# Details: Homo sapiens; HCC-2998, NCI-60 5-dose study
# Protocol: as §1, §2
row,SMILES,GI50
1,O=C(CNC(=O)c1cccc2ccccc12)Nc1ccccc1Oc1cccc(O)c1 [PCNA2],25.1 µM

# Test system: KM12
# Assay: NCI-60 panel test
# Type: cell-based
# Details: Homo sapiens; KM12, NCI-60 5-dose study
# Protocol: as §1, §2
row,SMILES,GI50
1,O=C(CNC(=O)c1cccc2ccccc12)Nc1ccccc1Oc1cccc(O)c1 [PCNA2],2.19 µM

# Test system: SK-MEL-28
# Assay: NCI-60 panel test
# Type: cell-based
# Details: Homo sapiens; SK-MEL-28, NCI-60 5-dose study
# Protocol: as §1, §2
row,SMILES,GI50
1,O=C(CNC(=O)c1cccc2ccccc12)Nc1ccccc1Oc1cccc(O)c1 [PCNA2],1.86 µM

# Test system: SK-OV-3
# Assay: NCI-60 panel test
# Type: cell-based
# Details: Homo sapiens; SK-OV-3, NCI-60 5-dose study
# Protocol: as §1, §2
row,SMILES,GI50
1,O=C(CNC(=O)c1cccc2ccccc12)Nc1ccccc1Oc1cccc(O)c1 [PCNA2],12.9 µM

# Test system: MDA-MB-435
# Assay: NCI-60 panel test
# Type: cell-based
# Details: Homo sapiens; MDA-MB-435, NCI-60 5-dose study
# Protocol: as §1, §2
row,SMILES,GI50
1,O=C(CNC(=O)c1cccc2ccccc12)Nc1ccccc1Oc1cccc(O)c1 [PCNA2],0.759 µM

# Test system: COLO 205
# Assay: NCI-60 panel test
# Type: cell-based
# Details: Homo sapiens
# Protocol: as §1, §2
row,SMILES,GI50
1,O=C(CNC(=O)c1cccc2ccccc12)Nc1ccccc1Oc1cccc(O)c1 [PCNA2],14.8 µM

# Test system: RXF 393
# Assay: NCI-60 panel test
# Type: cell-based
# Details: Homo sapiens; RXF 393, NCI-60 5-dose study
# Protocol: as §1, §2
row,SMILES,GI50
1,O=C(CNC(=O)c1cccc2ccccc12)Nc1ccccc1Oc1cccc(O)c1 [PCNA2],4.17 µM

# Test system: PC-3
# Assay: NCI-60 panel test
# Type: cell-based
# Details: Homo sapiens; PC-3, NCI-60 5-dose study
# Protocol: as §1, §2
row,SMILES,GI50
1,O=C(CNC(=O)c1cccc2ccccc12)Nc1ccccc1Oc1cccc(O)c1 [PCNA2],7.08 µM

# Test system: 786-0
# Assay: NCI-60 panel test
# Type: cell-based
# Details: Homo sapiens; 786-0, NCI-60 5-dose study
# Protocol: as §1, §2
row,SMILES,GI50
1,O=C(CNC(=O)c1cccc2ccccc12)Nc1ccccc1Oc1cccc(O)c1 [PCNA2],10 µM

# Test system: SK-MEL-2
# Assay: NCI-60 panel test
# Type: cell-based
# Details: Homo sapiens; SK-MEL-2, NCI-60 5-dose study
# Protocol: as §1, §2
row,SMILES,GI50
1,O=C(CNC(=O)c1cccc2ccccc12)Nc1ccccc1Oc1cccc(O)c1 [PCNA2],25.1 µM

# Test system: BT-549
# Assay: NCI-60 panel test
# Type: cell-based
# Details: Homo sapiens; BT-549, NCI-60 5-dose study
# Protocol: as §1, §2
row,SMILES,GI50
1,O=C(CNC(=O)c1cccc2ccccc12)Nc1ccccc1Oc1cccc(O)c1 [PCNA2],25.1 µM

# Test system: HCT-15
# Assay: NCI-60 panel test
# Type: cell-based
# Details: Homo sapiens; HCT-15, NCI-60 5-dose study
# Protocol: as §1, §2
row,SMILES,GI50
1,O=C(CNC(=O)c1cccc2ccccc12)Nc1ccccc1Oc1cccc(O)c1 [PCNA2],3.16 µM

# Test system: NCI-H322M
# Assay: NCI-60 panel test
# Type: cell-based
# Details: Homo sapiens, NCI-60 5-dose study
# Protocol: as §1, §2
row,SMILES,GI50
1,O=C(CNC(=O)c1cccc2ccccc12)Nc1ccccc1Oc1cccc(O)c1 [PCNA2],10.7 µM

# Test system: SNB-19
# Assay: NCI-60 panel test
# Type: cell-based
# Details: Homo sapiens; SNB-19, NCI-60 5-dose study
# Protocol: as §1, §2
row,SMILES,GI50
1,O=C(CNC(=O)c1cccc2ccccc12)Nc1ccccc1Oc1cccc(O)c1 [PCNA2],8.71 µM

# Test system: SNB-75
# Assay: NCI-60 panel test
# Type: cell-based
# Details: Homo sapiens; SNB-75, NCI-60 5-dose study
# Protocol: as §1, §2
row,SMILES,GI50
1,O=C(CNC(=O)c1cccc2ccccc12)Nc1ccccc1Oc1cccc(O)c1 [PCNA2],3.31 µM

# Test system: SW-620
# Assay: NCI-60 panel test
# Type: cell-based
# Details: Homo sapiens; SW-620, NCI-60 5-dose study
# Protocol: as §1, §2
row,SMILES,GI50
1,O=C(CNC(=O)c1cccc2ccccc12)Nc1ccccc1Oc1cccc(O)c1 [PCNA2],3.09 µM

# Test system: OVCAR-8
# Assay: NCI-60 panel test
# Type: cell-based
# Details: Homo sapiens; OVCAR-8, NCI-60 5-dose study
# Protocol: as §1, §2
row,SMILES,GI50
1,O=C(CNC(=O)c1cccc2ccccc12)Nc1ccccc1Oc1cccc(O)c1 [PCNA2],11.5 µM

# Test system: HOP-62
# Assay: NCI-60 panel test
# Type: cell-based
# Details: Homo sapiens; HOP-62, NCI-60 5-dose study
# Protocol: as §1, §2
row,SMILES,GI50
1,O=C(CNC(=O)c1cccc2ccccc12)Nc1ccccc1Oc1cccc(O)c1 [PCNA2],8.13 µM

# Test system: NCI-H23
# Assay: NCI-60 panel test
# Type: cell-based
# Details: Homo sapiens; NCI-H23, NCI-60 5-dose study
# Protocol: as §1, §2
row,SMILES,GI50
1,O=C(CNC(=O)c1cccc2ccccc12)Nc1ccccc1Oc1cccc(O)c1 [PCNA2],15.8 µM

# Test system: A498
# Assay: NCI-60 panel test
# Type: cell-based
# Details: Homo sapiens; A498, NCI-60 5-dose study
# Protocol: as §1, §2
row,SMILES,GI50
1,O=C(CNC(=O)c1cccc2ccccc12)Nc1ccccc1Oc1cccc(O)c1 [PCNA2],5.13 µM

# Test system: U251
# Assay: NCI-60 panel test
# Type: cell-based
# Details: Homo sapiens, U-251; U251, NCI-60 5-dose study
# Protocol: as §1, §2
row,SMILES,GI50
1,O=C(CNC(=O)c1cccc2ccccc12)Nc1ccccc1Oc1cccc(O)c1 [PCNA2],8.32 µM

# Test system: MCF7
# Assay: NCI-60 panel test
# Type: cell-based
# Details: Homo sapiens; MCF7, NCI-60 5-dose study
# Protocol: as §1, §2
row,SMILES,GI50
1,O=C(CNC(=O)c1cccc2ccccc12)Nc1ccccc1Oc1cccc(O)c1 [PCNA2],4.47 µM

# Test system: K-562
# Assay: NCI-60 panel test
# Type: cell-based
# Details: Homo sapiens, K562; K-562, NCI-60 5-dose study
# Protocol: as §1, §2
row,SMILES,GI50
1,O=C(CNC(=O)c1cccc2ccccc12)Nc1ccccc1Oc1cccc(O)c1 [PCNA2],1.05 µM
